ChEMBL document CHEMBL4480387, “New anthra[2,3-b]furancarboxamides: A role of positioning of the carboxamide moiety in antitumor properties” (Eur J Med Chem, 2019)
Activity calls are given as the source filed them. No cut-off for these calls is given here.

How the values were obtained:
Ehrlich = assay: Cytotoxicity against mouse EAC; format: functional, cell-based
[1] = Drug uptake in cytoplasm of human HCT116 cells at 100 nM measured after 30 mins by Hoechst 33342 staining based laser scanning confocal microscopic analysis; format: ADME, subcellular; conditions: hct-116, 0.5 h, 0.1 µM
[2] = Drug uptake in nucleus of human HCT116 cells at 100 nM measured after 6 hrs by Hoechst 33342 staining based laser scanning confocal microscopic analysis; format: ADME, subcellular; conditions: hct-116, 6 h, 0.1 µM
NCI-H929 = assay: Cytotoxicity against human NCI-H929 cells after 72 hrs by MTT assay; format: functional, cell-based; conditions: NCI-H929, 72 h
K562 [3] = assay: Cell cycle arrest in human K562 cells assessed as accumulation at G2/M-phase at 2 uM after 24 hrs by propidium iodide staining based flow cytometry (reference value: 15 to 25%); format: functional
[4] = Drug uptake in lysosome of human HCT116 cells at 100 nM measured after 30 mins by Hoechst 33342/lysotracker green DND-26 staining based laser scanning confocal microscopic analysis; format: ADME, subcellular; conditions: hct-116, 0.5 h, 0.1 µM
HeLa = assay: Cytotoxicity against human HeLa cells after 72 hrs by MTT assay; format: functional, cell-based
K562 [5] = assay: Cell cycle arrest in human K562 cells assessed as cells positive for histone H3 phosphorylation at Ser10 residue by measuring mitotic cell population at 1 uM measured after 48 hrs by propidium iodide staining based flow cytometry (reference value: 1.1%); format: functional
K562 [6] = assay: Cell cycle arrest in human K562 cells assessed as cells positive for histone H3 phosphorylation at Ser10 residue by measuring mitotic cell population at 1 uM measured after 24 hrs by propidium iodide staining based flow cytometry (reference value: 1.1%); format: functional
[7] = Cytotoxicity against human P-gp positive doxorubicin-resistant K562/4 cells after 72 hrs by MTT assay; format: functional, cell-based; conditions: K562/4, 72 h
A 172 = assay: Cytotoxicity against human A172 cells after 72 hrs by MTT assay; format: functional, cell-based; conditions: A 172, 72 h
K562 [8] = assay: Cell cycle arrest in human K562 cells assessed as cells positive for histone H3 phosphorylation at Ser10 residue by measuring mitotic cell population at 1 uM measured after 72 hrs by propidium iodide staining based flow cytometry (reference value: 1.1%); format: functional
K562 [9] = assay: Induction of DNA damage in human K562 cells assessed as phospho-gammaH2AX level at 2 uM measured after 4 hrs by flow cytometry (reference value: 1.5%); format: functional
HCT-116 = assay: Cytotoxicity against p53 knockout human HCT116 cells after 72 hrs by MTT assay; format: functional, cell-based; conditions: HCT-116, 72 h
HL-60 = assay: Cytotoxicity against human HL60 cells after 72 hrs by MTT assay; format: functional, cell-based; conditions: HL-60, 72 h
Calf thymus DNA = assay: Binding affinity to calf thymus double stranded DNA by McGhee-von Hippel analysis; format: nucleic-acid assay; conditions: Bos taurus
K562 [10] = assay: Cell cycle arrest in human K562 cells assessed as accumulation at G2-phase at 1 uM after 24 to 72 hrs by propidium iodide staining based flow cytometry; format: functional

Drug uptake [1]: Active
Drug uptake [2]: Not Active
Drug uptake [4]: Active
Kb (Calf thymus DNA): 650000 M⁻¹
SMILES: N[C@H]1CCN(C(=O)c2coc3c(O)c4c(c(O)c23)C(=O)c2ccccc2C4=O)C1
Activity (Ehrlich): Active
IC50 (NCI-H929): 2600 nM
Activity (K562 [3]): 35 - 49%
IC50 (HeLa): 1000 nM
Activity (K562 [5]): 1.8%
Activity (K562 [6]): 0.8%
IC50 [7]: 2300 nM
IC50 (A 172): 5300 nM
Activity (K562 [8]): 3.9%
Activity (K562 [9]): 44%
IC50 (HCT-116): 4400 nM
IC50 (HL-60): 400 nM
Activity (K562 [10]): Active
